Assay results reported in ChEMBL document CHEMBL4507295 (2021).

Experiments:
[1] = test system: Tyrosine-protein kinase ABL1 (Homo sapiens), P00519 [H396P]; settings: Compound concentration 1000.0 nM
[2] = molecular target: Tyrosine-protein kinase ABL1 (Homo sapiens) (UniProt P00519); settings: Compound concentration 1000.0 nM
[3] = molecular target: Activin receptor type-1 (Homo sapiens) (UniProt Q04771); settings: Compound concentration 1000.0 nM
[4] = molecular target: Activin receptor type-2B (Homo sapiens) (UniProt Q13705); settings: Compound concentration 1000.0 nM
[5] = molecular target: RAC-alpha serine/threonine-protein kinase (Homo sapiens) (UniProt P31749); settings: Compound concentration 1000.0 nM
[6] = molecular target: RAC-beta serine/threonine-protein kinase (Homo sapiens) (UniProt P31751); settings: Compound concentration 1000.0 nM
[7] = molecular target: Calcium/calmodulin-dependent protein kinase type IV (Homo sapiens) (UniProt Q16566); settings: Compound concentration 1000.0 nM
[8] = molecular target: Dual specificity protein kinase CLK3 (Homo sapiens) (UniProt P49761); settings: Compound concentration 1000.0 nM
[9] = molecular target: Dual specificity protein kinase CLK4 (Homo sapiens) (UniProt Q9HAZ1); settings: Compound concentration 1000.0 nM
[10] = molecular target: Serine/threonine-protein kinase MRCK gamma (Homo sapiens) (UniProt Q6DT37); settings: Compound concentration 1000.0 nM
[11] = molecular target: Ephrin type-A receptor 5 (Homo sapiens) (UniProt P54756); settings: Compound concentration 1000.0 nM
[12] = molecular target: Ephrin type-A receptor 8 (Homo sapiens) (UniProt P29322); settings: Compound concentration 1000.0 nM
[13] = test system: Receptor-type tyrosine-protein kinase FLT3 (Homo sapiens), P36888 [D835Y]; settings: Compound concentration 1000.0 nM
[14] = molecular target: Beta-adrenergic receptor kinase 1 (Homo sapiens) (UniProt P25098); settings: Compound concentration 1000.0 nM
[15] = molecular target: Homeodomain-interacting protein kinase 4 (Homo sapiens) (UniProt Q8NE63); settings: Compound concentration 1000.0 nM
[16] = molecular target: Mitogen-activated protein kinase kinase kinase kinase 1 (Homo sapiens) (UniProt Q92918); settings: Compound concentration 1000.0 nM
[17] = test system: Mast/stem cell growth factor receptor Kit (Homo sapiens), P10721 [V559D]; settings: Compound concentration 1000.0 nM
[18] = molecular target: Serine/threonine-protein kinase LATS2 (Homo sapiens) (UniProt Q9NRM7); settings: Compound concentration 1000.0 nM
[19] = molecular target: Serine/threonine-protein kinase STK11 (Homo sapiens) (UniProt Q15831); settings: Compound concentration 1000.0 nM
[20] = molecular target: Tyrosine-protein kinase Lyn (Homo sapiens) (UniProt P07948); settings: Compound concentration 1000.0 nM
[21] = molecular target: Myosin-IIIb (Homo sapiens) (UniProt Q8WXR4); settings: Compound concentration 1000.0 nM
[22] = molecular target: Serine/threonine-protein kinase Nek11 (Homo sapiens) (UniProt Q8NG66); settings: Compound concentration 1000.0 nM
[23] = molecular target: Mitogen-activated protein kinase 14 (Homo sapiens) (UniProt Q16539); settings: Compound concentration 1000.0 nM
[24] = molecular target: Serine/threonine-protein kinase PAK 4 (Homo sapiens) (UniProt O96013); settings: Compound concentration 1000.0 nM
[25] = molecular target: Platelet-derived growth factor receptor beta (Homo sapiens) (UniProt P09619); settings: Compound concentration 1000.0 nM
[26] = test system: Phosphatidylinositol 4,5-bisphosphate 3-kinase catalytic subunit alpha isoform (Homo sapiens), P42336 [M1043I]; settings: Compound concentration 1000.0 nM
[27] = molecular target: Serine/threonine-protein kinase pim-1 (Homo sapiens) (UniProt P11309); settings: Compound concentration 1000.0 nM
[28] = molecular target: Phosphatidylinositol 5-phosphate 4-kinase type-2 beta (Homo sapiens) (UniProt P78356); settings: Compound concentration 1000.0 nM
[29] = molecular target: Membrane-associated tyrosine- and threonine-specific cdc2-inhibitory kinase (Homo sapiens) (UniProt Q99640); settings: Compound concentration 1000.0 nM
[30] = molecular target: Serine/threonine-protein kinase N1 (Homo sapiens) (UniProt Q16512); settings: Compound concentration 1000.0 nM
[31] = molecular target: Serine/threonine-protein kinase PknB (Mycobacterium tuberculosis) (UniProt P9WI81); settings: Compound concentration 1000.0 nM
[32] = molecular target: Serine/threonine-protein kinase PLK4 (Homo sapiens) (UniProt O00444); settings: Compound concentration 1000.0 nM
[33] = molecular target: Protein kinase C theta type (Homo sapiens) (UniProt Q04759); settings: Compound concentration 1000.0 nM
[34] = molecular target: Proto-oncogene tyrosine-protein kinase receptor Ret (Homo sapiens) (UniProt P07949); settings: Compound concentration 1000.0 nM
[35] = molecular target: Serine/threonine-protein kinase RIO1 (Homo sapiens) (UniProt Q9BRS2); settings: Compound concentration 1000.0 nM
[36] = molecular target: Ribosomal protein S6 kinase alpha-4 (Homo sapiens) (UniProt O75676); settings: Compound concentration 1000.0 nM
[37] = molecular target: NUAK family SNF1-like kinase 2 (Homo sapiens) (UniProt Q9H093); settings: Compound concentration 1000.0 nM
[38] = molecular target: Serine/threonine-protein kinase TAO3 (Homo sapiens) (UniProt Q9H2K8); settings: Compound concentration 1000.0 nM
[39] = molecular target: High affinity nerve growth factor receptor (Homo sapiens) (UniProt P04629); settings: Compound concentration 1000.0 nM
[40] = molecular target: Non-receptor tyrosine-protein kinase TYK2 (Homo sapiens) (UniProt P29597); settings: Compound concentration 1000.0 nM
[41] = molecular target: Tyrosine-protein kinase receptor TYRO3 (Homo sapiens) (UniProt Q06418); settings: Compound concentration 1000.0 nM
[42] = molecular target: Wee1-like protein kinase 2 (Homo sapiens) (UniProt P0C1S8); settings: Compound concentration 1000.0 nM
[43] = molecular target: Mitogen-activated protein kinase kinase kinase 20 (Homo sapiens) (UniProt Q9NYL2); settings: Compound concentration 1000.0 nM
[44] = molecular target: 5-hydroxytryptamine receptor 2B (Homo sapiens) (UniProt P41595); settings: Compound concentration 10.0 uM
[45] = molecular target: Histamine H1 receptor (Homo sapiens) (UniProt P35367); settings: Compound concentration 10.0 uM

Ribosomal protein S6 kinase alpha-4 (Homo sapiens), sequence (O75676 whole entry, looked up): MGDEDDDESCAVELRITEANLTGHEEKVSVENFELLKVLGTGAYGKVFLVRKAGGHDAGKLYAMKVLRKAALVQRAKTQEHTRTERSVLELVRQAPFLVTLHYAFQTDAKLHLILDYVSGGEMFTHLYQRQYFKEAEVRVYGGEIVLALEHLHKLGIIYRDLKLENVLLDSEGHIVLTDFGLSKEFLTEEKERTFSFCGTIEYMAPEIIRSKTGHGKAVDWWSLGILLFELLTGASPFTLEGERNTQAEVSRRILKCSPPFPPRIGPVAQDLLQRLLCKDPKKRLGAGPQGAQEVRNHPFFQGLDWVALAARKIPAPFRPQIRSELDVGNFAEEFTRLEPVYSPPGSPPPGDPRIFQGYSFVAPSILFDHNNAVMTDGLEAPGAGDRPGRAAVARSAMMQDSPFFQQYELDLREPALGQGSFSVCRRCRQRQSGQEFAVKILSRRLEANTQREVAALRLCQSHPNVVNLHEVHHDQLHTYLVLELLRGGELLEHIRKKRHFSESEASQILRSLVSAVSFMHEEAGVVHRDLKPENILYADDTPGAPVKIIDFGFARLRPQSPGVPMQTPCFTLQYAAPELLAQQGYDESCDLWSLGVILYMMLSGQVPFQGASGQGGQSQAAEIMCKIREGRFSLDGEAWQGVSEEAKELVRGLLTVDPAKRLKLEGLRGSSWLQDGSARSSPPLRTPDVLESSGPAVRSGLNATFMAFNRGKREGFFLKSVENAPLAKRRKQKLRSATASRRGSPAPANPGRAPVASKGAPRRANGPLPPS
Serine/threonine-protein kinase LATS2 (Homo sapiens), sequence (Q9NRM7 whole entry): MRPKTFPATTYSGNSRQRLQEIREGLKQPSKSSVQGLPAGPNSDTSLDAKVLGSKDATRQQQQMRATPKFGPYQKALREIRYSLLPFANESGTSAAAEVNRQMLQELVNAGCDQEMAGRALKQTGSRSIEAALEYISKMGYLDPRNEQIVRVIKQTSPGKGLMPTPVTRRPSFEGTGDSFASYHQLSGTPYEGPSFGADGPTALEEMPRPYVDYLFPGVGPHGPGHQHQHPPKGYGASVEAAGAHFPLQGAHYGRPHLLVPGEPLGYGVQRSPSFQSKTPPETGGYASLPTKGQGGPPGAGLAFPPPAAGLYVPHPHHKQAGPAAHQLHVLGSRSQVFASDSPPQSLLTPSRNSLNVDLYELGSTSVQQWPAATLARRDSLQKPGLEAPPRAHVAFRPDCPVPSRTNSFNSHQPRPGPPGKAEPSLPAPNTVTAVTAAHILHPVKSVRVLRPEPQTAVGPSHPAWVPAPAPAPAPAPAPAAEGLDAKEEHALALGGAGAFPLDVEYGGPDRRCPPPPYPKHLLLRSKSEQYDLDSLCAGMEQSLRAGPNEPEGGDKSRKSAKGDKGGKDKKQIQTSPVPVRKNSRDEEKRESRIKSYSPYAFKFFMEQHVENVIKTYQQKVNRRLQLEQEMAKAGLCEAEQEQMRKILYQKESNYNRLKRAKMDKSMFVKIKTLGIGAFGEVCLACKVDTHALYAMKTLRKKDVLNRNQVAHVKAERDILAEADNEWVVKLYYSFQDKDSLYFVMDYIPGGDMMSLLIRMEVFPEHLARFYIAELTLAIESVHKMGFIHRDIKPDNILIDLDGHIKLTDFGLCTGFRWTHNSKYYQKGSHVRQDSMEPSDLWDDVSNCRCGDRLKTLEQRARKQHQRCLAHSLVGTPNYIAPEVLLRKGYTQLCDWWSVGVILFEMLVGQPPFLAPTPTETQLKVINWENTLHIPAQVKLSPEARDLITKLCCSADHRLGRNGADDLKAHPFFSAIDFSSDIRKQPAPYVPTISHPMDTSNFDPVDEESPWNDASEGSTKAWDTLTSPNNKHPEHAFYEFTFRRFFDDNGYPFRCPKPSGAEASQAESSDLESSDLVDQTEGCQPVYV
Serine/threonine-protein kinase PAK 4 (Homo sapiens), sequence (O96013 whole entry, looked up): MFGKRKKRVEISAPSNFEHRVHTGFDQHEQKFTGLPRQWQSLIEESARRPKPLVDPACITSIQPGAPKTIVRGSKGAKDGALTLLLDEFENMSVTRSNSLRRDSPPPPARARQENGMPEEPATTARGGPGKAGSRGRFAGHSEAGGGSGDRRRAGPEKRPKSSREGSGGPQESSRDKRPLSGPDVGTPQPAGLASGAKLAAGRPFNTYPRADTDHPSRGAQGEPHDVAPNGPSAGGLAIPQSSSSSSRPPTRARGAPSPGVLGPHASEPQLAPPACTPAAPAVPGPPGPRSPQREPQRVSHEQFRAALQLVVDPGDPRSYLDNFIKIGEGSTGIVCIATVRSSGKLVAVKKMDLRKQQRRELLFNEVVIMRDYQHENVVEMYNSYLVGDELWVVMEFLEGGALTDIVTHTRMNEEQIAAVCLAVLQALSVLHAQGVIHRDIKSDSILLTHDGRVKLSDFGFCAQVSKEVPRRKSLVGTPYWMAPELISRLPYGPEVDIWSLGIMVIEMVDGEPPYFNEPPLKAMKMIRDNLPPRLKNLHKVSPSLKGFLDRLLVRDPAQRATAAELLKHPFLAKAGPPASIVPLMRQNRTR
RAC-alpha serine/threonine-protein kinase (Homo sapiens), sequence (P31749 whole entry): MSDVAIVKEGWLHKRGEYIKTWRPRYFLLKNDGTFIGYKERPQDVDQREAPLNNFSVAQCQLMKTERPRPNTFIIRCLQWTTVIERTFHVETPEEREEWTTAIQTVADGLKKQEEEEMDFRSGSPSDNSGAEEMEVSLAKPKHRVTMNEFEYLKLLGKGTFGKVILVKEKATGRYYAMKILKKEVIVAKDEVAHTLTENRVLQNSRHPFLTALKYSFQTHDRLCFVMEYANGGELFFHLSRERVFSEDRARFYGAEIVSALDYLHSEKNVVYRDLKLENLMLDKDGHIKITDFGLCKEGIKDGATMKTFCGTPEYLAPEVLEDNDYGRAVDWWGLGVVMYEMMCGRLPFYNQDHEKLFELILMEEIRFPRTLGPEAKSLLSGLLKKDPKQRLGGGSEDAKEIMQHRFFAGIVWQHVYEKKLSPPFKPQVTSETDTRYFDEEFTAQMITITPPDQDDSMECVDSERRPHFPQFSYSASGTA
NUAK family SNF1-like kinase 2 (Homo sapiens), sequence (Q9H093 whole entry): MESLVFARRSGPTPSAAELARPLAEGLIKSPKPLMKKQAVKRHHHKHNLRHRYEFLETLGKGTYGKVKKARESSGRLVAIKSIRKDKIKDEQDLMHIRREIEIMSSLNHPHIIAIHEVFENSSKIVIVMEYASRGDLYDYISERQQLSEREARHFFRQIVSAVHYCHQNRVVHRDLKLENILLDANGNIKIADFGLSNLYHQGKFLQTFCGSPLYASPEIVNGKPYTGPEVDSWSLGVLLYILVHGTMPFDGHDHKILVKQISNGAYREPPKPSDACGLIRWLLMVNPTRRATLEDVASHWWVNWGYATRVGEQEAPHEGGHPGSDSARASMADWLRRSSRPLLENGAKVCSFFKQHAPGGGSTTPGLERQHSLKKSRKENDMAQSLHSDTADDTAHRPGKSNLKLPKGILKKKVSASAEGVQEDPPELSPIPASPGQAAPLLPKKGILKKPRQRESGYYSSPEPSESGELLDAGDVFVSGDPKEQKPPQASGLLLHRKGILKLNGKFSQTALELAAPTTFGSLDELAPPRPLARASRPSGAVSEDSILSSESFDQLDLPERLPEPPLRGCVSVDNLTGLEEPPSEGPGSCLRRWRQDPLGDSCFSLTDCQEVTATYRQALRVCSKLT
RAC-beta serine/threonine-protein kinase (Homo sapiens), sequence (P31751 whole entry): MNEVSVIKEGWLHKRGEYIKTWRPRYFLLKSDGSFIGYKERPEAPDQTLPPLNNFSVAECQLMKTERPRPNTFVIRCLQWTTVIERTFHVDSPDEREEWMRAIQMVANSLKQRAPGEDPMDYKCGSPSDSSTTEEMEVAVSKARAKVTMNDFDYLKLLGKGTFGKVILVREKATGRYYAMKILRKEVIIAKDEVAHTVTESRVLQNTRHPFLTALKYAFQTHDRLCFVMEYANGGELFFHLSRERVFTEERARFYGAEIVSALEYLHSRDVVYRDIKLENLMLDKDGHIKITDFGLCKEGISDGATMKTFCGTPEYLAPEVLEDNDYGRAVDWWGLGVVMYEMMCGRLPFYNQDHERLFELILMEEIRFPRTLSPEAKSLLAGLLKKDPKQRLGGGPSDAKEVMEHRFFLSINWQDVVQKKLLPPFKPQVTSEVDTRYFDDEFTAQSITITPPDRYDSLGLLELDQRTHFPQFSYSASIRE
Mitogen-activated protein kinase kinase kinase 20 (Homo sapiens), sequence (Q9NYL2 2-800 limits assumed): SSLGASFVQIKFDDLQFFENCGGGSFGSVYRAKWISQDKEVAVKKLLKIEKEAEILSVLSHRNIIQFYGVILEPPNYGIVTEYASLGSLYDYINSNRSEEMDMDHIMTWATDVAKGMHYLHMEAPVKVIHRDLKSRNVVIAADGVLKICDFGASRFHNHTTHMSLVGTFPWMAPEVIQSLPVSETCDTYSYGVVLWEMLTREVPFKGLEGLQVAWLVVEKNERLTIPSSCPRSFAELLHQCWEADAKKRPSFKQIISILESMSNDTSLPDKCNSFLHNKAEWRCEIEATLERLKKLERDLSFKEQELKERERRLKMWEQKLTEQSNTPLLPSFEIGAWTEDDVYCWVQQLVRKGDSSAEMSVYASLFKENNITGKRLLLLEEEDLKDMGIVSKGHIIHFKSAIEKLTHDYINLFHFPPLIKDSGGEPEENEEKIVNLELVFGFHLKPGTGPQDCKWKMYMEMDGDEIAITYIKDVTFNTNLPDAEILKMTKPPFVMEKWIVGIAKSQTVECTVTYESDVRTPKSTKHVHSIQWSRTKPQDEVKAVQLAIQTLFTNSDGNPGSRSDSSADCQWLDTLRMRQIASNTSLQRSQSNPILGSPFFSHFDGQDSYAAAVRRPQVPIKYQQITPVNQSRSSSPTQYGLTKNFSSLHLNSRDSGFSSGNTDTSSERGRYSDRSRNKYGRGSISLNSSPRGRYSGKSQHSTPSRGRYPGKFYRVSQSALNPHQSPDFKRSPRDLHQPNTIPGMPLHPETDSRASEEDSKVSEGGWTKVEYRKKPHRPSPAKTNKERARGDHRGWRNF

N#CC1(c2ccccn2)CCN(Cc2cc(C(=O)N3CCCC3)c(=O)n3ccccc23)CC1
inactive: residual activity [1] 100% | residual activity [2] 89% | residual activity [3] 83% | residual activity [4] 75% | residual activity [5] 91% | residual activity [6] 84% | residual activity [7] 96% | residual activity [8] 99% | residual activity [9] 97% | residual activity [10] 88% | residual activity [11] 100% | residual activity [12] 100% | residual activity [13] 71% | residual activity [14] 82% | residual activity [15] 67% | residual activity [16] 100% | residual activity [17] 100% | residual activity [18] 93% | residual activity [19] 77% | residual activity [20] 99% | residual activity [21] 100% | residual activity [22] 63% | residual activity [23] 86% | residual activity [24] 100% | residual activity [25] 86% | residual activity [26] 72% | residual activity [27] 100% | residual activity [28] 62% | residual activity [29] 79% | residual activity [30] 91% | residual activity [31] 92% | residual activity [32] 87% | residual activity [33] 100% | residual activity [34] 74% | residual activity [35] 95% | residual activity [36] 100% | residual activity [37] 100% | residual activity [38] 100% | residual activity [39] 100% | residual activity [40] 100% | residual activity [41] 78% | residual activity [42] 91% | residual activity [43] 95% | inhibition [44] 5.44% | inhibition [45] 9.7%

N#CC1(c2ccccn2)CCN(Cc2cc(C(=O)O)c(=O)n3ccccc23)CC1 [MSD-M1PAM]
inactive: residual activity [1] 91% | residual activity [2] 100% | residual activity [3] 96% | residual activity [4] 97% | residual activity [5] 100% | residual activity [6] 73% | residual activity [7] 84% | residual activity [8] 100% | residual activity [9] 100% | residual activity [10] 100% | residual activity [11] 89% | residual activity [12] 100% | residual activity [13] 95% | residual activity [14] 93% | residual activity [15] 95% | residual activity [16] 100% | residual activity [17] 100% | residual activity [18] 95% | residual activity [19] 100% | residual activity [20] 100% | residual activity [21] 100% | residual activity [22] 89% | residual activity [23] 100% | residual activity [24] 100% | residual activity [25] 100% | residual activity [26] 91% | residual activity [27] 99% | residual activity [28] 100% | residual activity [29] 100% | residual activity [30] 100% | residual activity [31] 88% | residual activity [32] 90% | residual activity [33] 96% | residual activity [34] 95% | residual activity [35] 88% | residual activity [36] 65% | residual activity [37] 77% | residual activity [38] 78% | residual activity [39] 88% | residual activity [40] 93% | residual activity [41] 98% | residual activity [42] 100% | residual activity [43] 100% | inhibition [44] 3.23% | inhibition [45] 28.4%
